Reference: article PMC7932537, “Quantitative profiling of protease specificity” (PLoS Computational Biology, 2021)

Experiments:
MMP-2 = experiment: Substrate phage display with NGS: relative probability (RP) of P3-P1' tetramer clusters; format: biochemical, human; conditions: for relative probability (RP) of matching tetramer: P3-P1' tetramer matching the MS detected MMP2 cleavage sequence, RP_above_4.5; for avg_RP: MMP2 - no binning; for normalized RP - MMP2: normalized RP of matching tetramer
MMP-9 = experiment: as above; format: biochemical, human; conditions: for normalized RP - MMP9: normalized RP of matching tetramer
[1] = MMP2, RP of matching P3-P1' tetramer, common set of MMP2-9 selectome, RP above KL threshold
[2] = RP of matching tetramer, common MMP2-9 selectome
[3] = MMP9, RP of matching P3-P1' tetramer, common set of MMP2-9 selectome
[4] = MMP9, RP of the P3-P1' tetramer matching the MS detected cleavage, RP above 4.7, substrate phage display with NGS
[5] = RP of matching tetramer, common MMP2-9 selectome, RP above KL threshold
[6] = RP of the P3-P1' tetramer cluster contained in the hexamer, 200 nM MMP-2, 2 h, 37°C, two rounds of selection
[7] = MMP9, RP of the P3-P1' tetramer contained in the hexamer substrate (substrate phage display, NGS)
[8] = RP of the P3-P1' tetramer, MMP2 substrate phage display/NGS, tetramers of physiologic MEROPS substrates common to MMP2 and MMP9
[9] = RP of the P3-P1' tetramer, MMP9 substrate phage display/NGS, tetramers of physiologic MEROPS substrates common to MMP2 and MMP9
[10] = average relative probability of the tetramer, redundant tetramers averaged out
[11] = RP according to MMP2, P3-P1' tetramer of unique physiologic MMP2 substrates from MEROPS
[12] = RP of matching tetramer, unique part of MMP2 selectome, RP above KL threshold
[13] = RP of matching tetramer, unique part of MMP2 selectome

**Q.** For PGMI, which “relative probability (RP) (acc.to MMP2)” value (MMP-2; [1]) is on record?
**A.** 17.65

**Q.** What about the “relative probability (RP) of matching tetramer” value (MMP-2) of the same substance?
**A.** 17.65

**Q.** And the “relative probability (RP) (acc.to MMP2)” value (MMP-2; [2])?
**A.** 17.65

**Q.** And the “relative probability (RP) (acc.to MMP9)” value (MMP-9; [3])?
**A.** 13.36

**Q.** What about the “relative probability (RP)” value (MMP-9; [4]) of the same substance?
**A.** 13.36

**Q.** And the “relative probability (RP) (acc.to MMP9)” value (MMP-9; [5])?
**A.** 13.36

**Q.** With KSPVGV as the substance, how does the “relative probability (RP)” value (MMP-2; [6]) read?
**A.** 27.6556

**Q.** And the “relative probability (RP)” value (MMP-9; [7])?
**A.** 34.3287

**Q.** With PTPKAL as the substance, how does the “relative probability (RP)” value (MMP-2; [6]) read?
**A.** 34.4858

**Q.** And the “relative probability (RP)” value (MMP-9; [7])?
**A.** 48.3581

**Q.** Which results are given for PENF?
**A.** relative probability (RP) (acc.to MMP2) (MMP-2; [8]): 16; relative probability (RP) (acc.to MMP9) (MMP-9; [9]): 20.05; relative probability (RP) (MMP-9; tetramer annotation of MMP-9 cleavage sites in physiologic substrates from MEROPS): 20.05

**Q.** KSPSRL was tested. Which “relative probability (RP)” value (MMP-2; [6]) did it give?
**A.** 31.7732

**Q.** And the “relative probability (RP)” value (MMP-9; [7])?
**A.** 39.8157

**Q.** Which “relative probability (RP) (acc.to MMP2)” value (MMP-2; [8]) does the source give for SLPQ here?
**A.** 0.51

**Q.** And the “relative probability (RP) (acc.to MMP9)” value (MMP-9; [9])?
**A.** 0.1

**Q.** With PLNV as the substance, how does the avg_RP (MMP-2; average relative probability of the P3-P1' tetramer, redundant tetramers have been averaged out) read?
**A.** 24.9266

**Q.** What about the “relative probability (RP) (acc.to MMP2)” value (MMP-2; [1]) of the same substance?
**A.** 24.93

**Q.** What about the “relative probability (RP) of matching tetramer” value (MMP-2) of the same substance?
**A.** 24.93

**Q.** And the “relative probability (RP) (acc.to MMP2)” value (MMP-2; [2])?
**A.** 24.93

**Q.** What about the “relative probability (RP) (acc.to MMP9)” value (MMP-9; [3]) of the same substance?
**A.** 43.38

**Q.** What about the “relative probability (RP)” value (MMP-9; [4]) of the same substance?
**A.** 43.38

**Q.** What about the “relative probability (RP) (acc.to MMP9)” value (MMP-9; [5]) of the same substance?
**A.** 43.38

**Q.** With GRGL as the substance, how does the avg_RP (MMP-2; [10]) read?
**A.** 4.9808

**Q.** And the “relative probability (RP) (acc.to MMP2)” value (MMP-2; [1])?
**A.** 4.98

**Q.** And the “relative probability (RP) of matching tetramer” value (MMP-2)?
**A.** 4.98

**Q.** And the “relative probability (RP) (acc.to MMP2)” value (MMP-2; [2])?
**A.** 4.98

**Q.** What about the “relative probability (RP) (acc.to MMP9)” value (MMP-9; [3]) of the same substance?
**A.** 11.45

**Q.** And the “relative probability (RP)” value (MMP-9; [4])?
**A.** 11.45

**Q.** What about the “relative probability (RP) (acc.to MMP9)” value (MMP-9; [5]) of the same substance?
**A.** 11.45

**Q.** Which “relative probability (RP) (acc.to MMP2)” value (MMP-2; [8]) does the source give for VTPR here?
**A.** 0.18

**Q.** And the “relative probability (RP) (acc.to MMP9)” value (MMP-9; [9])?
**A.** 0.46

**Q.** PRPY was tested. Which “relative probability (RP) (acc.to MMP2)” value (MMP-2; [1]) did it give?
**A.** 33.44

**Q.** And the “relative probability (RP) of matching tetramer” value (MMP-2)?
**A.** 33.44

**Q.** And the “relative probability (RP) (acc.to MMP2)” value (MMP-2; [2])?
**A.** 33.44

**Q.** And the “relative probability (RP) (acc.to MMP9)” value (MMP-9; [3])?
**A.** 47.69

**Q.** What about the “relative probability (RP)” value (MMP-9; [4]) of the same substance?
**A.** 47.69

**Q.** What about the “relative probability (RP) (acc.to MMP9)” value (MMP-9; [5]) of the same substance?
**A.** 47.69

**Q.** What does the source list for LREL?
**A.** relative probability (RP) (acc.to MMP2) (MMP-2; [1]): 21.53; relative probability (RP) of matching tetramer (MMP-2): 21.53; relative probability (RP) (acc.to MMP2) (MMP-2; [2]): 21.53; relative probability (RP) (acc.to MMP9) (MMP-9; [3]): 21.21; relative probability (RP) (MMP-9; [4]): 21.21; relative probability (RP) (acc.to MMP9) (MMP-9; [5]): 21.21

**Q.** PAVM was tested. Which “MMP2 relative probability (RP)” value (MMP-2; MMP2 tetramers from unique substrates, unrounded values) did it give?
**A.** 17.6491

**Q.** What about the “Relative probability (RP) rank” value (MMP-2; [11]) of the same substance?
**A.** 2339

**Q.** What about the “relative probability (RP)” value (MMP-2; [11]) of the same substance?
**A.** 17.65

**Q.** What about the “corresponding MMP9 relative probability (RP)” value (MMP-9; MMP2 tetramers from unique substrates, RP of same tetramer for MMP9) of the same substance?
**A.** 4.1214

**Q.** What does the source list for NPMPIR?
**A.** relative probability (RP) (MMP-2; [6]): 26.0717; relative probability (RP) (MMP-9; [7]): 45.0822

**Q.** For QQPSRL, which “relative probability (RP)” value (MMP-2; [6]) is on record?
**A.** 31.7732

**Q.** What about the “relative probability (RP)” value (MMP-9; [7]) of the same substance?
**A.** 39.8157

**Q.** With PRGFSH as the substance, how does the “relative probability (RP)” value (MMP-2; [6]) read?
**A.** 32.9171

**Q.** And the “relative probability (RP)” value (MMP-9; [7])?
**A.** 42.5506

**Q.** Which “relative probability (RP)” value (MMP-2; [6]) does the source give for SPPAAI here?
**A.** 32.0972

**Q.** And the “relative probability (RP)” value (MMP-9; [7])?
**A.** 46.1642

**Q.** How did the “relative probability (RP) (acc.to MMP2)” value (MMP-2; [1]) turn out when PEQL was run?
**A.** 12.46

**Q.** What about the “relative probability (RP) of matching tetramer” value (MMP-2) of the same substance?
**A.** 12.46

**Q.** What about the “relative probability (RP) (acc.to MMP2)” value (MMP-2; [2]) of the same substance?
**A.** 12.46

**Q.** And the “relative probability (RP) (acc.to MMP9)” value (MMP-9; [3])?
**A.** 23.26

**Q.** What about the “relative probability (RP)” value (MMP-9; [4]) of the same substance?
**A.** 23.26

**Q.** And the “relative probability (RP) (acc.to MMP9)” value (MMP-9; [5])?
**A.** 23.26

**Q.** With AIHI as the substance, how does the “relative probability (RP) (acc.to MMP2)” value (MMP-2; [8]) read?
**A.** 4.71

**Q.** What about the “relative probability (RP) (acc.to MMP9)” value (MMP-9; [9]) of the same substance?
**A.** 5.64

**Q.** For KSPQAM, which “relative probability (RP)” value (MMP-2; [6]) is on record?
**A.** 28.5429

**Q.** What about the “relative probability (RP)” value (MMP-9; [7]) of the same substance?
**A.** 47.1106

**Q.** Which avg_RP (MMP-2; [10]) does the source give for PRFL here?
**A.** 28.4443

**Q.** What about the “relative probability (RP) (acc.to MMP2)” value (MMP-2; [1]) of the same substance?
**A.** 28.44

**Q.** What about the “relative probability (RP) of matching tetramer” value (MMP-2) of the same substance?
**A.** 28.44

**Q.** What about the “relative probability (RP) (acc.to MMP2)” value (MMP-2; [2]) of the same substance?
**A.** 28.44

**Q.** What about the “relative probability (RP) (acc.to MMP9)” value (MMP-9; [3]) of the same substance?
**A.** 42.45

**Q.** And the “relative probability (RP)” value (MMP-9; [4])?
**A.** 42.45

**Q.** What about the “relative probability (RP) (acc.to MMP9)” value (MMP-9; [5]) of the same substance?
**A.** 42.45

**Q.** TAPSSQ was tested. Which “relative probability (RP)” value (MMP-2; [6]) did it give?
**A.** 25.0042

**Q.** And the “relative probability (RP)” value (MMP-9; [7])?
**A.** 27.1142

**Q.** For PSQM, which “relative probability (RP) (acc.to MMP2)” value (MMP-2; [8]) is on record?
**A.** 27.24

**Q.** What about the “relative probability (RP) (acc.to MMP9)” value (MMP-9; [9]) of the same substance?
**A.** 37.02

**Q.** For QAQL, which “relative probability (RP) of matching tetramer” value (MMP-2) is on record?
**A.** 6.16

**Q.** And the “relative probability (RP) (acc.to MMP2)” value (MMP-2; [12])?
**A.** 6.16

**Q.** And the “normalized RP - MMP2” value (MMP-2; unique part of MMP2 selectome)?
**A.** 0.1687

**Q.** What about the “relative probability (RP) (acc.to MMP9)” value (MMP-9; [13]) of the same substance?
**A.** 0.06

**Q.** What about the “normalized RP - MMP9” value (MMP-9; unique part of MMP2 selectome) of the same substance?
**A.** 0.001145

**Q.** What does the source list for PYSI?
**A.** relative probability (RP) (acc.to MMP2) (MMP-2; [1]): 23.85; relative probability (RP) of matching tetramer (MMP-2): 23.85; relative probability (RP) (acc.to MMP9) (MMP-9; [3]): 45.53

**Q.** Which “relative probability (RP) (acc.to MMP2)” value (MMP-2; [8]) does the source give for HQKL here?
**A.** 2.29

**Q.** What about the “relative probability (RP) (acc.to MMP9)” value (MMP-9; [9]) of the same substance?
**A.** 0.06

**Q.** Which results are given for NRGF?
**A.** relative probability (RP) of matching tetramer (MMP-2): 6.81; relative probability (RP) (acc.to MMP2) (MMP-2; [12]): 6.81; normalized RP - MMP2 (MMP-2; unique part of MMP2 selectome): 0.1865; relative probability (RP) (acc.to MMP9) (MMP-9; [13]): 0; normalized RP - MMP9 (MMP-9; unique part of MMP2 selectome): 0

**Q.** How did the “relative probability (RP)” value (MMP-2; [6]) turn out when PHNILS was run?
**A.** 24.3767

**Q.** And the “relative probability (RP)” value (MMP-9; [7])?
**A.** 42.0557

**Q.** For QPLEIR, which “relative probability (RP)” value (MMP-2; [6]) is on record?
**A.** 19.9123

**Q.** What about the “relative probability (RP)” value (MMP-9; [7]) of the same substance?
**A.** 43.9826

**Q.** With TTPSPI as the substance, how does the “relative probability (RP)” value (MMP-2; [6]) read?
**A.** 32.5241

**Q.** And the “relative probability (RP)” value (MMP-9; [7])?
**A.** 43.889

**Q.** For PTGK, which “relative probability (RP) (acc.to MMP2)” value (MMP-2; [8]) is on record?
**A.** 0.04

**Q.** And the “relative probability (RP) (acc.to MMP9)” value (MMP-9; [9])?
**A.** 0
